# Source: patent US20060173066A1, “Remedy for diabetes” (Kyowa Hakko Kogyo Co., Ltd., priority 2003, published 2006)
# Legend:
# Format in all cases: in vivo
# [1] = system: GK/Jcl rats of a type 2 diabetic model; assay: Example 5: blood-sugar level after oral glucose load in fasted rats; conditions: for Blood-Sugar Level, 30 min: 30 minutes after glucose 2 g/kg; for Blood-Sugar Level, 30 min / Blood-Sugar Level, −30 min / Blood-Sugar Level, 60 min / Blood-Sugar Level, 120 min / Blood-Sugar Level, 0 min: n=6; for Blood-Sugar Level, −30 min: 30 minutes before glucose 2 g/kg (baseline, at dosing), mean ± standard error; for Blood-Sugar Level, 60 min: 60 minutes after glucose 2 g/kg; for Blood-Sugar Level, 120 min: 120 minutes after glucose 2 g/kg; for Blood-Sugar Level, 0 min: upon glucose administration 2 g/kg
# Experimental: GK/Jcl rats (Clea Japan, Inc.; male; nine weeks age) (18 mice) of a type 2 diabetic model were divided into three groups each comprising six mice and named groups 1 to 3.
# After fasting for 18 hours, 5 ml/kg B.W. of a solvent (0.5% (w/v) methyl cellulose #400) was orally administered to the rats of the group 1. A 60 mg/ml solution of the hydroxyproline in the same solvent was orally administered to the rats of the group 2 so as to make the amount of administration 300 mg/kg B.W. A 200 mg/ml solution of the hydroxyproline in the same solvent was orally administered to the rats of the group 3 so as to make the amount of administration 1,000 mg/kg B.W. After 30 minutes from the oral administration, 2 g/kg B.W. of a 20% (w/v) aqueous solution of glucose was orally administered to the mice of the groups 1 to 3 to load with sugar. Blood was collected from tail vein 30 minutes before the administration of the aqueous glucose solution (−30 minutes), upon the administration (0 minute) and 30 minutes, 60 minutes and 120 minutes after the administration and blood-sugar levels were measured by a Medisafe Reader GR-101.
# The value was shown by mean value±standard error (n=6) and statistic ratio of risk (p value) between the groups 1 and 2 and that between the groups 1 and 3 was determined by a one-way layout dispersion analysis and by a Dunnett test.
# [2] = system: KK-Ay/Ta Jcl mice of a type 2 diabetic model; assay: Example 1: serum-insulin level after 18 hours fasting in mice fed CE-2 feed with 1% by weight of test substance
# Text: (§1) KK-Ay/Ta Jcl mice (Clea Japan, Inc.; male; six weeks age) (15 mice) of a type 2 diabetic model were divided into three groups each comprising five mice and named group 1 to group 3.
# (§2) The mice of the groups 1 to 3 were made free to take feed and water. A commercially available feed CE-2 (manufactured by Clea Japan, Inc.) was ingested to the mice of group 1. CE-2 to which 1% by weight of trans-4-hydroxy-L-proline (manufactured by Kyowa Hakko Kogyo; hereinafter, abbreviated as hydroxyproline) was added was ingested to the mice of group 2. CE-2 to which 1% by weight of trans-N-acetyl-4-hydroxy-L-proline (manufactured by Kyowa Hakko Kogyo; hereinafter, abbreviated as N-acetylhydroxyproline) was added was ingested to the mice of group 3.
# (§3) On the initial day of the test and on the 17th day thereafter, blood was collected from tail vein and blood-sugar level upon non-fasting was measured by a Medisafe Reader GR-101 (manufactured by Thermo Co.). The mice were fasted for 18 hours during the 17th day to the 18th day after the start of the test and whole blood was collected from descending vena cava to prepare serum. The serum-insulin level was measured by a Levi Insulin Kit Mouse-T (manufactured by Shibayagi). The value was shown by mean value±standard error (n=5) and statistic ratio of risk (p value) was determined by a t-test. With regard to the ingested amounts during the test periods, there was no significant difference among the groups 1 to 3.
# [3] = system: GK/Jcl rats of a type 2 diabetic model; assay: Example 4: blood-sugar level after single oral administration in rats; conditions: 1,000 mg/kg B.W. oral
# Experimental: GK/Jcl rats (Clea Japan, Inc; male; nine weeks age) (12 mice) of a type 2 diabetic model were divided into two groups each comprising six mice and named group 1 and group 2.
# Five ml/kg B.W. of a solvent (0.5% (w/v) methyl cellulose #400) was orally administered to the rats of the group 1. A 200 mg/ml solution of the hydroxyproline in the same solvent was orally administered to the rats of the group 2 so as to make the amount of administration 1,000 mg/kg B.W. Blood was collected from tail vein upon administration of the solvent or the hydroxyproline solution (0 minute) and 30 minutes, 60 minutes and 120 minutes after the administration and blood-sugar levels were measured by a Medisafe Reader GR-101. The value was shown by mean value±standard error (n=6) and statistic ratio of risk (p value) was determined by a t-test.
# [4] = system: KK-Ay/Ta Jcl mice of a type 2 diabetic model; assay: Example 1: non-fasting blood-sugar level in mice fed CE-2 feed with 1% by weight of test substance
# Text: as §1, §2, §3
structure (smiles),measurement,setting,value
"O=C(O)[C@@H]1C[C@@H](O)CN1 [hydroxyproline, trans-4-hydroxy-L-proline]","Blood-Sugar Level, 30 min",[1]; 300 mg/kg B.W. oral,269.5 ± 15.3 mg/dL
same,"Blood-Sugar Level, −30 min",[1]; 300 mg/kg B.W. oral,113.3 ± 2.7 mg/dL
same,"Blood-Sugar Level, 60 min",[1]; 300 mg/kg B.W. oral,298.2 ± 7.5 mg/dL
same,"Blood-Sugar Level, 120 min",[1]; 300 mg/kg B.W. oral,207.5 ± 6.3 mg/dL
same,"Blood-Sugar Level, 0 min",[1]; 300 mg/kg B.W. oral,144.2 ± 7.2 mg/dL
same,"Blood-Sugar Level, 30 min","[1]; 1,000 mg/kg B.W. oral",226.2 ± 3.0 mg/dL
same,"Blood-Sugar Level, −30 min","[1]; 1,000 mg/kg B.W. oral",112.2 ± 3.3 mg/dL
same,"Blood-Sugar Level, 60 min","[1]; 1,000 mg/kg B.W. oral",247.3 ± 4.4 mg/dL
same,"Blood-Sugar Level, 120 min","[1]; 1,000 mg/kg B.W. oral",181.2 ± 7.3 mg/dL
same,"Blood-Sugar Level, 0 min","[1]; 1,000 mg/kg B.W. oral",137.0 ± 6.6 mg/dL
same,antidiabetic action (conclusion from Table 7),"[1]; 300 and 1,000 mg/kg B.W. oral, glucose load",dose-dependent antidiabetic-action
same,antidiabetic action by improving insulin resistance (conclusion from Tables 1 and 2),[2],show an antidiabetic action by improving the insulin resistance
same,Serum-Insulin Level,"[2]; 18th day after 18 hours fasting, mean ± standard error, n=5",1.01 ± 0.08 ng/mL
same,antidiabetic action (conclusion from Table 6),[3],antidiabetic action
same,"Blood-Sugar Level, 30 min","[3]; 30 minutes after administration, mean ± standard error, n=6",220.3 ± 13.8 mg/dL
same,"Blood-Sugar Level, 60 min","[3]; 60 minutes after administration, mean ± standard error, n=6",189.5 ± 10.9 mg/dL
same,"Blood-Sugar Level, 120 min","[3]; 120 minutes after administration, mean ± standard error, n=6",156.0 ± 6.8 mg/dL
same,"Blood-Sugar Level, 0 min","[3]; upon administration (baseline), mean ± standard error, n=6",189.2 ± 8.4 mg/dL
same,antidiabetic action (conclusion from Table 1),[4]; 17 days,antidiabetic action
same,"Blood-Sugar Level, 17th Day of the Test","[4]; non-fasting, tail vein blood, 17th day, mean ± standard error, n=5",260.4 ± 10.8 mg/dL
same,"Blood-Sugar Level, Initial Day of the Test","[4]; non-fasting, tail vein blood, initial day (baseline), mean ± standard error, n=5",243.0 ± 12.2 mg/dL
